Source: patent publication US6884805B2, “Polymorph forms of N-(2,3-dimethyl-5,6,7,8-tetrahydrofuro[2,3-B]quinolin-4-YL)-2-(2-oxopyrrolidin-1-YL)acetamide” (Mitsubishi Pharma Corporation, priority 2001, dated 2005)
Converted amounts (≈) assume the structure as drawn. “Also recorded” adds a separate entry of the source. Like-named read-outs stand apart in the source and are kept apart here.

Legend:
Format in all cases: physicochemical
[1] = Solubility in the crystallization solvent (for the supersaturability calculation); settings: aqueous with cosolvent or surfactant or cyclodextrin, about room temperature, read-out: solubility under the condition of crystallization
Procedure: The supersaturability of the form A crystals was calculated as follows: The supersaturability (calculation) is equal to the concentration of the dissolving N-(2,3-dimethyl-5,6,7,8-tetrahydrofuro[2,3-b]quinolin-4-yl)-2-(2-oxopyrrolidin-1-yl)acetamide divided by the solubility of N-(2,3-dimethyl-5,6,7,8-tetrahydrofuro[2,3-b]quinolin-4-yl)-2-(2-oxopyrrolidin-1-yl)acetamide under the condition of crystallization.
The solubility of N-(2,3-dimethyl-5,6,7,8-tetrahydrofuro[2,3-b]quinolin-4-yl)-2-(2-oxopyrrolidin-1-yl)acetamide under the condition of crystallization refers to the solubility of N-(2,3-dimethyl-5,6,7,8-tetrahydrofuro[2,3-b]quinolin-4-yl)-2-(2-oxopyrrolidin-1-yl)acetamide in the solvents used in crystallization at about room temperature.

[2] = Crystal form stability at room temperature and during storage; settings: for stability in storage: during storage (over time); for stability at room temperature compared with the other crystal form: room temperature (25° C.)
Text: The form A crystal and the form B crystal of the present invention can be prepared with good reproducibility by using solvents safe for human bodies (e.g., pharmaceutically, pharmacologically, and/or physiologically acceptable). Therefore, it is far more useful as a pharmaceutical bulk or an active ingredient of a medicament.

[3] = Conversion of form B crystal to form A crystal in stirred water suspension; settings: 0.5 g in 10 mL water, stirred 24 hours, confirmed by powder X-ray diffraction
Procedure: A suspension was prepared by adding 0.5 g of form B crystals of N-(2,3-dimethyl-5 ,6,7,8-tetrahydrofuro [2,3-b]quinolin-4-yl)-2-(2-oxopyrrolidin-1-yl)acetamide to 10 mL of water. […] The powder X-ray diffraction pattern of the resulting crystals was measured to confirm that the resulting crystals were form A crystals.

[4] = Water solubility of saturated solutions measured by LC
Procedure: Saturated solutions of the form A crystals and the form B crystals were prepared at room temperature (25° C.). The concentrations of N-(2,3-dimethyl-5,6,7,8-tetrahydrofuro[2,3-b]quinolin-4-yl)-2-(2-oxopyrrolidin-1-yl)acetamide in each of the saturated solutions then was measured to obtain the water solubility of the form A and form B crystals.
About 20 mg of the form A crystal was weighed and put into separate tube with screwcap, then 10 mL of water were added, and the tube was capped. The tube was ultrasonicated for 5 minutes to suspend the sample. The tube then was shaken for 3 hours in an incubator, with the shaker setting at an appropriate temperature to obtain a saturated solution. The saturated solutions were filtrated using a Chromatodisk 25A (GL Science). 5 mL of the filtrate were measured, and 5 mL of the internal standard solutions (16 mg of isopropyl p-hydroxybenzoate were weighed, and 50% methanol was added to obtain 100 mL of an internal standard solutions) were added, and then 50% methanol was added to obtain 50 mL of sample solutions. 20 mg of each crystals were weighed, and then methanol was added to obtain 50 mL solutions. 5 mL of the aforementioned solutions were measured, and then 5 mL of the internal standard solutions were added, and then 50% of methanol was added to obtain 50 mL of the standard solutions. […]

Row | solubility ([1]; 10% methanol) [mg/mL] | solubility ([1]; 60% methanol) [mg/mL] | stability at room temperature compared with the other crystal form ([2]; listed as form A) | crystal form after stirring a suspension in water [3] | solubility (in words) ([4]; summary statement) | solubility compared with the form A crystal ([4]; water, at 25° C. and over a relatively wide temperature range (FIG. 4)) | Structure (SMILES) | stability in storage [2] | stability at room temperature compared with the other crystal form [2]
1 | 0.41 (≈ 1.2 mM) | 28.1 (≈ 82.2 mM) | – | – | – | – | Cc1oc2nc3c(c(NC(=O)CN4CCCC4=O)c2c1C)CCCC3 [N-(2,3-dimethyl-5,6,7,8-tetrahydrofuro[2,3-b]quinolin-4-yl)-2-(2-oxopyrrolidin-1-yl)acetamide] | – | –
2 | – | – | more stable | – | – | – | Cc1oc2nc3c(c(NC(=O)CN4CCCC4=O)c2c1C)CCCC3 [form A crystal, N-(2,3-dimethyl-5,6,7,8-tetrahydrofuro[2,3-b]quinolin-4-yl)-2-(2-oxopyrrolidin-1-yl)acetamide] | good stability; also recorded: greater stability | extremely stable; also recorded: better stability
3 | – | – | – | resulted in the form A crystals | good solubility | higher | Cc1oc2nc3c(c(NC(=O)CN4CCCC4=O)c2c1C)CCCC3 [form B crystal, N-(2,3-dimethyl-5,6,7,8-tetrahydrofuro[2,3-b]quinolin-4-yl)-2-(2-oxopyrrolidin-1-yl)acetamide] | worse stability | worse stability
